Source: article PMC12951562, “SH2scan: Mapping SH2 Domain-Ligand Binding Selectivity for Inhibitors and Degraders” (Journal of Medicinal Chemistry, 2026)
Non-standard residues stand in square brackets, D forms with d. Residues, ends and D or L forms follow the SMILES beside them. *: point of attachment. pY = N[C@@H](Cc1ccc(OP(=O)(O)O)cc1)C(=O)O; Caffeoyl = O=C(/C=C/c1ccc(O)c(O)c1)*

Key:
Test in all cases: biochemical
Format in all cases: binding
TNS4 = target: T1, TNS4 (Homo sapiens, UniProt Q8IZW8); settings: for remaining activity at 10 µM: read-out: percent of DMSO vehicle control
T1 construct: made in house; host or cells: HEK293 (transient transfection), unpurified extract
T1 sequence (Q8IZW8 19-715): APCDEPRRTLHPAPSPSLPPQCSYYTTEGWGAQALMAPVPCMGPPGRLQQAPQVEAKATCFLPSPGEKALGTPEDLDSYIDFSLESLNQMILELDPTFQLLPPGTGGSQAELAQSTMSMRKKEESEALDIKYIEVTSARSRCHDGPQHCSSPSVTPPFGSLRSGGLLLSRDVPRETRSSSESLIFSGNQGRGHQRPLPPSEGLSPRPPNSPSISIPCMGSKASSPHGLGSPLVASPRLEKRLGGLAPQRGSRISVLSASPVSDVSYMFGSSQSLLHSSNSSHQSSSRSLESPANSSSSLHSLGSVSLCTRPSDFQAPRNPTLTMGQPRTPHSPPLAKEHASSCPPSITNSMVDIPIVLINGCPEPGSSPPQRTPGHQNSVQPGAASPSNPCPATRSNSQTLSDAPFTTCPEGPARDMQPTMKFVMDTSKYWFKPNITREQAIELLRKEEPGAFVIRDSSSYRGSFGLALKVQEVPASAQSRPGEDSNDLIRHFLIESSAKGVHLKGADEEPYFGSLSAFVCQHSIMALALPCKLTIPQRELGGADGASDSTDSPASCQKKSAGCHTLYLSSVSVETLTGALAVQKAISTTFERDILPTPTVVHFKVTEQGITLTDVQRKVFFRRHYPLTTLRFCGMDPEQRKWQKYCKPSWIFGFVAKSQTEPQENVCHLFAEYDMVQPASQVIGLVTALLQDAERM

YES = target: T2, YES (Homo sapiens, UniProt P07947); settings: for remaining activity at 10 µM: read-out: percent of DMSO vehicle control
T2 construct: the DNA-tagged SH2 domain concentrations used in this study were <0.1 nM; made in house; host or cells: HEK293 (transient transfection; unpurified cell extract)

STAT1 = target: T3, STAT1 (Homo sapiens, UniProt P42224); settings: for remaining activity at 10 µM: read-out: percent of DMSO vehicle control
T3 construct: made in house; host or cells: HEK293 (transient transfection), unpurified extract
T3 sequence (P42224 1-750): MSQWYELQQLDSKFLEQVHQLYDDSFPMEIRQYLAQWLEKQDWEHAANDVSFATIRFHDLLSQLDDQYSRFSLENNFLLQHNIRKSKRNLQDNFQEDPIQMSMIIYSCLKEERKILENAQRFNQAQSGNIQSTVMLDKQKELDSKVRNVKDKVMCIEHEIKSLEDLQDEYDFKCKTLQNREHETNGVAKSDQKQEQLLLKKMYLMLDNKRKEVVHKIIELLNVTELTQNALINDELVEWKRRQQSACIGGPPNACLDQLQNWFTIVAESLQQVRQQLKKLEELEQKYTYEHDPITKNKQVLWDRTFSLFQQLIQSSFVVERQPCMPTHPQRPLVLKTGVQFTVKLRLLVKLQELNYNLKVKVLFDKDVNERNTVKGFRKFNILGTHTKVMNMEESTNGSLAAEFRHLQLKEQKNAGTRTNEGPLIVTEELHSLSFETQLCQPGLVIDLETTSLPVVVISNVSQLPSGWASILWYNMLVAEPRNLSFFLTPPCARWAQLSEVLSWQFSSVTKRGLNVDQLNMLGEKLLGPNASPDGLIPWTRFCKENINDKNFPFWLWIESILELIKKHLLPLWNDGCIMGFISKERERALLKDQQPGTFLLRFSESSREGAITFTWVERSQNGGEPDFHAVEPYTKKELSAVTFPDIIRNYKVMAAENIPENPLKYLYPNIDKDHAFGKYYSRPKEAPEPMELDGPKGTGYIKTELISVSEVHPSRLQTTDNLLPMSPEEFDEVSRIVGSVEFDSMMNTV

SH2D1B = target: T4, SH2D1B (Homo sapiens, UniProt O14796); settings: for remaining activity at 10 µM: read-out: percent of DMSO vehicle control
T4 construct: made in house; host or cells: HEK293 (transient transfection), unpurified extract
T4 sequence (O14796 1-132): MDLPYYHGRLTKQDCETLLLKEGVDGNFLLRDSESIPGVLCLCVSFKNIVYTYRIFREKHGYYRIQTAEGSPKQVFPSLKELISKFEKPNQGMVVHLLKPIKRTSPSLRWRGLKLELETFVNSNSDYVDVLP

SH2B (SH2B1) = target: T5, SH2B (SH2B1) (Homo sapiens, UniProt Q9NRF2); settings: for remaining activity at 10 µM: read-out: percent of DMSO vehicle control
T5 construct: made in house; host or cells: HEK293 (transient transfection), unpurified extract

SOCS3 = target: T6, SOCS3 (Homo sapiens, UniProt O14543); settings: for remaining activity at 10 µM: read-out: percent of DMSO vehicle control
T6 construct: made in house; host or cells: HEK293 (transient transfection), unpurified extract
T6 sequence (O14543 1-225): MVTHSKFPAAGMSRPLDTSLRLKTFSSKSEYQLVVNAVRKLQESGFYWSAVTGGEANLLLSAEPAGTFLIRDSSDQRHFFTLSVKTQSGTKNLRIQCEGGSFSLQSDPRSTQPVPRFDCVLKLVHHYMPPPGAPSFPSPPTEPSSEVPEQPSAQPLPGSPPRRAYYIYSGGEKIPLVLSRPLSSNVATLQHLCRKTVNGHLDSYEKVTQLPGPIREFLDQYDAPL

GRB7 = target: T7, GRB7 (Homo sapiens, UniProt Q14451); settings: for percent of DMSO vehicle control at 10 µM: read-out: percent of DMSO vehicle control
T7 construct: the DNA-tagged SH2 domain concentrations used in this study were <0.1 nM; made in house; host or cells: HEK293 (transient transfection; unpurified extract)

DAPP1 = target: T8, DAPP1 (Homo sapiens, UniProt Q9UN19); settings: for percent of DMSO vehicle control at 10 µM: read-out: percent of DMSO vehicle control
T8 construct: the DNA-tagged SH2 domain concentrations used in this study were <0.1 nM; made in house; host or cells: HEK293 (transient transfection; unpurified extract)
T8 sequence (Q9UN19 35-129 limits assumed): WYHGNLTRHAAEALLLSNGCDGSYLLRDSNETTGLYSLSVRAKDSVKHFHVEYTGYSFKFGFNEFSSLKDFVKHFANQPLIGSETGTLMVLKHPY

SOCS1 = target: T9, SOCS1 (Homo sapiens, UniProt O15524); settings: for remaining activity at 10 µM: read-out: percent of DMSO vehicle control
T9 construct: made in house; host or cells: HEK293 (transient transfection), unpurified extract
T9 sequence (O15524 1-211): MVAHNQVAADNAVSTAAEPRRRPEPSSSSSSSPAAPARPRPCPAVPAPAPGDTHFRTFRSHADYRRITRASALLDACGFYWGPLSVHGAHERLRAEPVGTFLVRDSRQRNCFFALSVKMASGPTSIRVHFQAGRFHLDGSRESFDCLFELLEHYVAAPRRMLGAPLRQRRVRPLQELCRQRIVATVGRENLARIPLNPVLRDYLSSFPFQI

GRAP = target: T10, GRAP (Homo sapiens, UniProt Q13588); settings: for percent of DMSO vehicle control at 10 µM: read-out: percent of DMSO vehicle control
T10 construct: the DNA-tagged SH2 domain concentrations used in this study were <0.1 nM; made in house; host or cells: HEK293 (transient transfection; unpurified extract)

PIK3R1(SH2dom.N-term.) = target: T11, PIK3R1(SH2dom.N-term.) (Homo sapiens, UniProt P27986); settings: for remaining activity at 10 µM: read-out: percent of DMSO vehicle control
T11 construct: SH2dom.N-term. denotes SH2 domain closest to N-terminus of protein; made in house; host or cells: HEK293 (transient transfection, unpurified extract)

CRKL = target: T12, CRKL (Homo sapiens, UniProt P46109); settings: for percent of DMSO vehicle control at 10 µM: read-out: percent of DMSO vehicle control
T12 construct: the DNA-tagged SH2 domain concentrations used in this study were <0.1 nM; made in house; host or cells: HEK293 (transient transfection; unpurified extract)
T12 sequence (P46109 14-102 limits assumed): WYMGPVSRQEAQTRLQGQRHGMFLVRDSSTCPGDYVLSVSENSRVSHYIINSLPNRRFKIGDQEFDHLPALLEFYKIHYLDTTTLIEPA

T7 sequence (Q14451 431-527 limits assumed): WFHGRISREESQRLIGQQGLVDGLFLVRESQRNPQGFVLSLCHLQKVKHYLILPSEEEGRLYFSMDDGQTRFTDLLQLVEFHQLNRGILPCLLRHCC
T2 sequence (P07947 158-255 limits assumed): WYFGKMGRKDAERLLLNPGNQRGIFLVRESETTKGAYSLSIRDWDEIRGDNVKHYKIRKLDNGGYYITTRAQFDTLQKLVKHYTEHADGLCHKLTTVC
T11 sequence (P27986 333-428 limits assumed): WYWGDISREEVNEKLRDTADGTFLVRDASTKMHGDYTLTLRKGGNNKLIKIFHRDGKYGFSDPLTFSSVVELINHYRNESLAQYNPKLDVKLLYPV
T10 sequence (Q13588 60-154 limits assumed): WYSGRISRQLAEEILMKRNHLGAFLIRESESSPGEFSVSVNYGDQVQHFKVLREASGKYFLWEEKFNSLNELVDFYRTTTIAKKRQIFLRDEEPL

SMILES | Kd (TNS4) [nM] | Kd (YES) [nM] | remaining activity at 10 µM (YES) [%] | remaining activity at 10 µM (STAT1) [%] | remaining activity at 10 µM (SH2D1B) [%] | remaining activity at 10 µM (TNS4) [%] | remaining activity at 10 µM (SH2B (SH2B1)) [%] | remaining activity at 10 µM (SOCS3) [%] | Kd (GRB7) [nM] | percent of DMSO vehicle control at 10 µM (GRB7) [%] | percent of DMSO vehicle control at 10 µM (DAPP1) [%] | remaining activity at 10 µM (SOCS1) [%] | percent of DMSO vehicle control at 10 µM (GRAP) [%] | remaining activity at 10 µM (PIK3R1(SH2dom.N-term.)) [%] | percent of DMSO vehicle control at 10 µM (CRKL) [%] | further results
CC[C@H](C)[C@H](NC(=O)[C@H](CO)NC(=O)[C@H](CC(C)C)NC(=O)[C@H](CCCNC(=N)N)NC(=O)[C@H](CO)NC(=O)[C@H](CS)NC(C)=O)C(=O)N[C@@H](Cc1ccc(OP(=O)(O)O)cc1)C(=O)N[C@@H](CC(=O)O)C(=O)N[C@@H](CC(N)=O)C(=O)N[C@H](C(=O)N1CCC[C@H]1C(=O)NCC(N)=O)C(C)C [Ac-CSRLSIpYDNVPG-NH2] (Ac-CSRLSI[pY]DNVPG-NH2) | 28.3 ± 4.96 |  |  |  |  |  |  |  |  |  |  |  |  |  |  | 
CC[C@H](C)[C@H](NC(=O)[C@H](CCC(=O)O)NC(=O)[C@H](CCC(=O)O)NC(=O)[C@H](Cc1ccc(OP(=O)(O)O)cc1)NC(C)=O)C(=O)N[C@@H](CCC(=O)O)C(N)=O [Ac-pYEEIE-NH2] (Ac-[pY]EEIE-NH2) |  | 3800 |  |  |  |  |  |  |  |  |  |  |  |  |  | percent of DMSO vehicle control (YES; primary screen, 10 μM): 14.2±1.5%; percent of DMSO vehicle control (STAT1; primary screen, 10 μM): 69.3%; percent of DMSO vehicle control (SH2D1B; primary screen, 10 μM): 47.1±1.3%; percent of DMSO vehicle control (TNS4; primary screen, 10 μM): 61.9±0.0%; percent of DMSO vehicle control (SH2B (SH2B1); primary screen, 10 μM): 126.6%; percent of DMSO vehicle control (SOCS3; primary screen, 10 μM): 149.7%; percent of DMSO vehicle control (GRB7; primary screen, 10 μM): 123.8%; percent of DMSO vehicle control (DAPP1; primary screen, 10 μM): 134.5%; percent of DMSO vehicle control (SOCS1; primary screen, 10 μM): 128.1%; percent of DMSO vehicle control (GRAP; primary screen, 10 μM): 112.9%; percent of DMSO vehicle control (PIK3R1(SH2dom.N-term.); primary screen, 10 μM): 87.7%; percent of DMSO vehicle control (CRKL; primary screen, 10 μM): 131.3%
CC(=O)N[C@@H](Cc1ccc(CP(=O)(O)O)cc1)C(=O)NC1(C(=O)N[C@@H](CC(N)=O)C(=O)NCCCc2c(O)ccc3ccccc23)CCCCC1 [CGP78850] | 508 |  | 66.7 ± 8.3 | 71.2 ± 2.1 | 77.3 ± 6.6 | 5 ± 1.1 | 125 ± 1.9 | 116 ± 4.4 | 5.2 | 0 | 136 ± 2.8 | 129 ± 11.7 | 0 | 109 ± 5.7 | 36.4 ± 18.5 | Kd (GRAP): 3.3 nM
CC[C@H](C)[C@H](NC(=O)[C@H](CCC(=O)O)NC(=O)[C@H](CCC(=O)O)NC(=O)[C@H](Cc1ccc(OP(=O)(O)O)cc1)NC(=O)/C=C/c1ccc(O)c(O)c1)C(=O)N[C@@H](CCC(=O)O)C(=O)O [Caffeic acid-pYEEIE] (Caffeoyl-[pY]EEIE-OH) | 2600 ± 740 | 1 ± 0.47 | 0 | 27.1 ± 21.3 | 12.9 ± 2.3 | 3.1 ± 0.7 | 2.3 ± 0.4 | 5.3 ± 0.3 | 6100 ± 320 | 0.2 ± 0.1 | 39.2 ± 3.2 | 1.1 ± 0.1 | 109.9 ± 0.3 | 0.7 ± 0.1 | 42.1 ± 6 | KD (STAT1; dose-response): No Hit; Kd (SH2D1B): 65 ± 14 nM; Kd (SH2B (SH2B1)): 910 ± 310 nM; Kd (SOCS3): 1800 ± 2000 nM; Kd (SOCS1): 30 ± 6.5 nM; Kd (PIK3R1(SH2dom.N-term.)): 140 ± 17 nM
